How the values were obtained:
Experiment in all cases: KINOMEscan
Format in all cases: binding
Settings in all cases: 2000 nM
[1] = biological target: T1, EPHB6 (Homo sapiens, UniProt O15197)
T1 construct: DNA label (qPCR read-out); purchased DiscoveRx (KINOMEscan ScanMAX panel)

[2] = biological target: T2, MEK3 (Homo sapiens, UniProt P46734)
T2 construct: purchased DiscoveRx (KINOMEscan scanMAX panel, service)

[3] = biological target: T3, CSNK1G2 (Homo sapiens, UniProt P78368)
T3 construct: DNA label; purchased DiscoveRx (KINOMEscan scanMAX panel)

[4] = biological target: T4, NDR2 (Homo sapiens, UniProt Q9Y2H1)
T4 construct: DNA label (for qPCR read-out); purchased KINOMEscan scanMAX panel (DiscoveRx)

[5] = biological target: T5, TYRO3 (Homo sapiens, UniProt Q06418)
T5 construct: DNA label (for qPCR read-out); purchased DiscoveRx (KINOMEscan scanMAX panel)

[6] = biological target: T6, PLK1 (Homo sapiens, UniProt P53350)
T6 construct: purchased DiscoveRx (KINOMEscan scanMAX panel)
T6 sequence (P53350 whole entry): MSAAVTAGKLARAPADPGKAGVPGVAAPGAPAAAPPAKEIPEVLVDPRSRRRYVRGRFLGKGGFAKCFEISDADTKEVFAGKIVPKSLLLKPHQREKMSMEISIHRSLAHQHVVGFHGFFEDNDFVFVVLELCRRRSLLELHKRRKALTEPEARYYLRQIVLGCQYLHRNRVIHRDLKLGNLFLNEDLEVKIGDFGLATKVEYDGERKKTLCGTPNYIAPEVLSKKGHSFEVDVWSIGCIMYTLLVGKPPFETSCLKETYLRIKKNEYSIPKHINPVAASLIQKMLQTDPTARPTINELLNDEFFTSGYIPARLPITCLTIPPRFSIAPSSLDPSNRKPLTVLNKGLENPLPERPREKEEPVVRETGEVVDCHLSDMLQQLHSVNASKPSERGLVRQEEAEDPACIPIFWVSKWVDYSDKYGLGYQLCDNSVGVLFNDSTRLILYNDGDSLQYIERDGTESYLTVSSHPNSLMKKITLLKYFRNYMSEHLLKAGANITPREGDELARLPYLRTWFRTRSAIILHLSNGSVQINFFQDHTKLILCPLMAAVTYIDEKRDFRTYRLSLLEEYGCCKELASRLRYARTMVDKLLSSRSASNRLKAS

[7] = biological target: MAP4K2 (Homo sapiens, UniProt Q12851)
[8] = biological target: T7, MST2 (Homo sapiens, UniProt Q13188)
T7 construct: DNA label (for qPCR read-out); purchased KINOMEscan scanMAX panel (DiscoveRx)
T7 sequence (Q13188 whole entry): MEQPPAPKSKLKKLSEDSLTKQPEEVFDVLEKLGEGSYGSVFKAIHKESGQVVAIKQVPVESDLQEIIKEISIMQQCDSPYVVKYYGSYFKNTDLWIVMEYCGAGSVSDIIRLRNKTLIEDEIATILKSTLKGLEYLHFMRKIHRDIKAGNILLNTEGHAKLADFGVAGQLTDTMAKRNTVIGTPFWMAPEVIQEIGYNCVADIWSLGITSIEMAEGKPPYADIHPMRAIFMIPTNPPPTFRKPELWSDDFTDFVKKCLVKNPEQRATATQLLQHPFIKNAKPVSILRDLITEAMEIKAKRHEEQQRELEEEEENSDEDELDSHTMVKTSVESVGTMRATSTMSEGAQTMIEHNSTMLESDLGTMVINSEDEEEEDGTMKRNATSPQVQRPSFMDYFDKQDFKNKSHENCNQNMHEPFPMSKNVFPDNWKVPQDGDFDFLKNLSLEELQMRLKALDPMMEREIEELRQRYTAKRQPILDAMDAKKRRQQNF

[9] = biological target: T8, GSK3A (Homo sapiens, UniProt P49840)
T8 construct: DNA label (qPCR read-out); purchased DiscoverX (assay service)

[10] = biological target: T9, CAMK1D (Homo sapiens, UniProt Q8IU85)
T9 construct: DNA label (qPCR read-out); purchased KINOMEscan (ScanMAX panel service)
T9 sequence (Q8IU85 whole entry): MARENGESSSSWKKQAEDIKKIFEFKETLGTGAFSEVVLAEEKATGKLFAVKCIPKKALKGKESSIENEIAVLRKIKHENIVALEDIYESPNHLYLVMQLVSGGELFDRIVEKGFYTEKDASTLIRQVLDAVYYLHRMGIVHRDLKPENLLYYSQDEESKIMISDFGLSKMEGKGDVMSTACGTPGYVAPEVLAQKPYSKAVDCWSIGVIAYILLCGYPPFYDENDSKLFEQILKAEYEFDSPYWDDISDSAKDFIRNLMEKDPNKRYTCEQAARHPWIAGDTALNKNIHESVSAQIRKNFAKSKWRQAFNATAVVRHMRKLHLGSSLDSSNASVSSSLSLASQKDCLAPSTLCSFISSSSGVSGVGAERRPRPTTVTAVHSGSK

[11] = biological target: T10, WEE1 (Homo sapiens, UniProt P30291)
T10 construct: purchased KINOMEscan (DiscoveRx) panel service
T10 sequence (P30291 whole entry): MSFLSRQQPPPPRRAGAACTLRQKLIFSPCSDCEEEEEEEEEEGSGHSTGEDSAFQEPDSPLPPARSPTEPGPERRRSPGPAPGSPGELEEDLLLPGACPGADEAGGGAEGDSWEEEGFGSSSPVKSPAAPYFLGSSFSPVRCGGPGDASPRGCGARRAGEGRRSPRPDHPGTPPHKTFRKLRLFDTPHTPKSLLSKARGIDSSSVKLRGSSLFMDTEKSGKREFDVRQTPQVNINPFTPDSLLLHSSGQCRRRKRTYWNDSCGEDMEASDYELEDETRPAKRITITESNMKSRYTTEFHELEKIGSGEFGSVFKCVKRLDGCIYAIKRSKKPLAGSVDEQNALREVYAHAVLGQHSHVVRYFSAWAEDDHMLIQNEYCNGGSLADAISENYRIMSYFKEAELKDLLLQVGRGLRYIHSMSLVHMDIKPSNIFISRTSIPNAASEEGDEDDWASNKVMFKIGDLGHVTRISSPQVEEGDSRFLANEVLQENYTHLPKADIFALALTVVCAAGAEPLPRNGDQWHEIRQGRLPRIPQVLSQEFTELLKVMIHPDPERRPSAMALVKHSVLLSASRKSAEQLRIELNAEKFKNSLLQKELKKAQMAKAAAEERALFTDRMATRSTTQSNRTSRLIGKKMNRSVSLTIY

[12] = biological target: T11, JNK3 (Homo sapiens, UniProt P53779)
T11 construct: DNA label (for qPCR read-out); purchased DiscoveRx (KINOMEscan scanMAX panel)

[13] = biological target: T12, MET (Homo sapiens, UniProt P08581)
T12 construct: purchased DiscoveRx (KINOMEscan scanMAX panel, service)

[14] = biological target: T13, FYN (Homo sapiens, UniProt P06241)
T13 construct: purchased KINOMEscan (DiscoveRx)

[15] = biological target: T14, CDK11 (CDK19) (Homo sapiens, UniProt Q9BWU1)
T14 construct: purchased DiscoverX (KINOMEscan service)
T14 sequence (Q9BWU1 whole entry): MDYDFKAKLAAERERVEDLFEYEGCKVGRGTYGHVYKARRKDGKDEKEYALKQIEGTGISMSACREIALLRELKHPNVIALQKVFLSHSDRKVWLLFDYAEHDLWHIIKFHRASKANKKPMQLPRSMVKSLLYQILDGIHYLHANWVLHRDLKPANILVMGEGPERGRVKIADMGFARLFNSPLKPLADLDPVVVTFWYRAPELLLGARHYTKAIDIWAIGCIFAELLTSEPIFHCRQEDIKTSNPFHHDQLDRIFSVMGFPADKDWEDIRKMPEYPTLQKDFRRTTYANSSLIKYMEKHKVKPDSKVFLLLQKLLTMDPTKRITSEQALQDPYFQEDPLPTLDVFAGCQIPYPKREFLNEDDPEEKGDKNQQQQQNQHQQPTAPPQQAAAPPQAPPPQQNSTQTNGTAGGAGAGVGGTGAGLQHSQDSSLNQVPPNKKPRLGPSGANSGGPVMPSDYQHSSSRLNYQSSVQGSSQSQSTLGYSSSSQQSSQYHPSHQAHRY

[16] = biological target: T15, MARK4 (Homo sapiens, UniProt Q96L34)
T15 construct: purchased DiscoveRx (KINOMEscan scanMAX panel, service)
T15 sequence (Q96L34 whole entry): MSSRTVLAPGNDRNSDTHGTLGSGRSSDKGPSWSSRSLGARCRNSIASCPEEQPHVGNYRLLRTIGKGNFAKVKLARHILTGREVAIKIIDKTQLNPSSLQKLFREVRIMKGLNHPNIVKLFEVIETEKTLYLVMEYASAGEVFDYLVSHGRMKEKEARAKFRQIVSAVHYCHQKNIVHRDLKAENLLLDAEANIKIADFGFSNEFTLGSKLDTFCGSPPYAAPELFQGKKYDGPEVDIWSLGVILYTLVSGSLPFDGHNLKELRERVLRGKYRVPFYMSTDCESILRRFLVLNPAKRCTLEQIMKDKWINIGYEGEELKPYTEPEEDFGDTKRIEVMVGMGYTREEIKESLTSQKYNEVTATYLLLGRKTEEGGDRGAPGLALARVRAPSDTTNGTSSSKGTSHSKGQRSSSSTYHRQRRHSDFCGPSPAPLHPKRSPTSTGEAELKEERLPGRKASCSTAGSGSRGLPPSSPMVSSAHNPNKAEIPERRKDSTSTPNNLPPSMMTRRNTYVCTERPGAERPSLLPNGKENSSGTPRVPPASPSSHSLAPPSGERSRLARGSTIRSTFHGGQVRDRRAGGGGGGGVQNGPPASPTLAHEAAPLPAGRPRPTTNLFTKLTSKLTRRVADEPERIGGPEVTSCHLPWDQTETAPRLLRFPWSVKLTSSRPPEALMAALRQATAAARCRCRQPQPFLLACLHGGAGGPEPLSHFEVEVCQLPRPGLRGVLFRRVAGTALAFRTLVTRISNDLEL

[17] = biological target: T16, JNK1 (Homo sapiens, UniProt P45983)
T16 construct: DNA label (for qPCR read-out); purchased DiscoveRx (KINOMEscan scanMAX panel)
T16 sequence (P45983 whole entry): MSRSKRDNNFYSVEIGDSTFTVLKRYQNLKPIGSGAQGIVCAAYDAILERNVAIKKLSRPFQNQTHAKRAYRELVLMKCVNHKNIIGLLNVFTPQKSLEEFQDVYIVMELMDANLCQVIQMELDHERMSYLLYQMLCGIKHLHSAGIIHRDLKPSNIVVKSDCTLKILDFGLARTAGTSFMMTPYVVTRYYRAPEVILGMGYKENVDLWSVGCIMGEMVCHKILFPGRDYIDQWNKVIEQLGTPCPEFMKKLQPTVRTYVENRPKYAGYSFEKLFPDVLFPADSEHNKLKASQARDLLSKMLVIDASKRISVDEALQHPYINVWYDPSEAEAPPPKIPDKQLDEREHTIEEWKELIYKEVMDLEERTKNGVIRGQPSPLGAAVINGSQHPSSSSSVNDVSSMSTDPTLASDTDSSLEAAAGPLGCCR

[18] = biological target: T17, FLT3(K663Q) (Homo sapiens, UniProt P36888, K663Q)
T17 construct: purchased KINOMEscan (DiscoveRx)

[19] = biological target: T18, SNARK (Homo sapiens, UniProt Q9H093)
T18 construct: purchased KINOMEscan (DiscoveRx)

[20] = biological target: ABL1(F317L)-phosphorylated (Homo sapiens, UniProt P00519, F317L)
[21] = biological target: T19, CDKL3 (Homo sapiens, UniProt Q8IVW4)
T19 construct: DNA label (for qPCR read-out); purchased DiscoveRx (KINOMEscan scanMAX service)

[22] = biological target: T20, SRMS (Homo sapiens, UniProt Q9H3Y6)
T20 construct: purchased KINOMEscan (DiscoveRx)

[23] = biological target: T21, PRKD2 (Homo sapiens, UniProt Q9BZL6)
T21 construct: purchased DiscoveRx (KINOMEscan scanMAX panel)

[24] = biological target: T22, INSR (Homo sapiens, UniProt P06213)
T22 construct: DNA label (qPCR read-out); purchased KINOMEscan (DiscoveRx) ScanMAX panel

[25] = biological target: T23, MELK (Homo sapiens, UniProt Q14680)
T23 construct: purchased DiscoveRx (KINOMEscan scanMAX panel, service)

[26] = biological target: T24, TTK (Homo sapiens, UniProt P33981)
T24 construct: DNA label (for qPCR read-out); purchased DiscoveRx (KINOMEscan scanMAX panel)
T24 sequence (P33981 whole entry): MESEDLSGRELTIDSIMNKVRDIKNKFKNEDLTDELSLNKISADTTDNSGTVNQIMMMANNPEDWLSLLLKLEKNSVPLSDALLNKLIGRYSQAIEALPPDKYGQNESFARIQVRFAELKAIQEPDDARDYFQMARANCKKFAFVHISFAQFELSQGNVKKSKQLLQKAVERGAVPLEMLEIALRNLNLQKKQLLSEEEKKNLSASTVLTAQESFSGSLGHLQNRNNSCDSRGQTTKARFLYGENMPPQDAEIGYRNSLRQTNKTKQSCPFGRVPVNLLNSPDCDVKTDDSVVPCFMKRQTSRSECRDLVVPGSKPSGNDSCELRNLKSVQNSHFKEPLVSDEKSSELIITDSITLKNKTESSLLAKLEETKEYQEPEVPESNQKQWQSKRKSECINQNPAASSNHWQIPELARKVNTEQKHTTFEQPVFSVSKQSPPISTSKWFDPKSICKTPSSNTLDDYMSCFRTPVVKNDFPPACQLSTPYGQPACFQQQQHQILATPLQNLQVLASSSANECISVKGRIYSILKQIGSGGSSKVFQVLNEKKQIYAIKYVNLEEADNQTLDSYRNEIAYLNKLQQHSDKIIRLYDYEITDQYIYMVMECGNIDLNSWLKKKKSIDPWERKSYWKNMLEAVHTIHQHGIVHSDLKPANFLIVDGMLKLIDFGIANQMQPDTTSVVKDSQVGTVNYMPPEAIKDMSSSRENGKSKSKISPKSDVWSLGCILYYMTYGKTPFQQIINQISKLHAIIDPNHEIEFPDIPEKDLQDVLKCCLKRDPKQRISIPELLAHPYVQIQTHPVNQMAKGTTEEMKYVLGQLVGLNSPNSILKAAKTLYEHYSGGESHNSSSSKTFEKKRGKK

[27] = biological target: T25, YSK1 (Homo sapiens, UniProt O00506)
T25 construct: purchased KINOMEscan (DiscoveRx) panel service

[28] = biological target: T26, WNK3 (Homo sapiens, UniProt Q9BYP7)
T26 construct: purchased KINOMEscan (DiscoveRx) panel service

[29] = biological target: T27, LATS2 (Homo sapiens, UniProt Q9NRM7)
T27 construct: purchased KINOMEscan (DiscoveRx) panel service

[30] = biological target: T28, FGFR1 (Homo sapiens, UniProt P11362)
T28 construct: purchased DiscoveRx (KINOMEscan scanMAX panel)

[31] = biological target: T29, EPHA1 (Homo sapiens, UniProt P21709)
T29 construct: purchased DiscoveRx (KINOMEscan scanMAX panel)

[32] = biological target: T30, RET(V804M) (Homo sapiens, UniProt P07949, V804M)
T30 construct: purchased DiscoveRx (KINOMEscan scanMAX panel)

[33] = biological target: T31, ALK (Homo sapiens, UniProt Q9UM73)
T31 construct: purchased DiscoveRx (KINOMEscan scanMAX panel, service)

[34] = biological target: T32, EGFR(L858R,T790M) (Homo sapiens, UniProt P00533, L858R/T790M)
T32 construct: purchased DiscoveRx (KINOMEscan scanMAX panel)

[35] = biological target: T33, EGFR(T790M) (Homo sapiens, UniProt P00533, T790M)
T33 construct: purchased DiscoveRx (KINOMEscan scanMAX panel)

[36] = biological target: LZK (Homo sapiens, UniProt O43283)
[37] = biological target: ABL1(Q252H)-phosphorylated (Homo sapiens, UniProt P00519, Q252H)

T2 sequence (P46734 whole entry): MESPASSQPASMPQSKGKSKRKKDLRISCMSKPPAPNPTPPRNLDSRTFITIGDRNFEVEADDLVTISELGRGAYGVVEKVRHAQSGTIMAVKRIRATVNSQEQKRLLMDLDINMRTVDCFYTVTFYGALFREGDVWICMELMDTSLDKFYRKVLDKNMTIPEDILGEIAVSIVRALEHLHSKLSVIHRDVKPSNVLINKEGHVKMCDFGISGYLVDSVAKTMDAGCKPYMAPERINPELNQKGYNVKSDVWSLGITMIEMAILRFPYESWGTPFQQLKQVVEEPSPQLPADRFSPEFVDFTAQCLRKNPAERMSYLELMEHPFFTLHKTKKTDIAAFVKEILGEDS

Row | Compound | % Ctrl [1] [% Ctrl] | % Ctrl [2] [% Ctrl] | % Ctrl [3] [% Ctrl] | % Ctrl [4] [% Ctrl] | % Ctrl [5] [% Ctrl] | % Ctrl [6] [% Ctrl] | % Ctrl [7] [% Ctrl] | % Ctrl [8] [% Ctrl] | % Ctrl [9] [% Ctrl] | % Ctrl [10] [% Ctrl] | % Ctrl [11] [% Ctrl] | % Ctrl [12] [% Ctrl] | % Ctrl [13] [% Ctrl] | % Ctrl [14] [% Ctrl] | % Ctrl [15] [% Ctrl] | % Ctrl [16] [% Ctrl] | % Ctrl [17] [% Ctrl] | % Ctrl [18] [% Ctrl] | % Ctrl [19] [% Ctrl] | % Ctrl [20] [% Ctrl] | further results
1 | CN(C)C(=O)c1ccc(N2CCCN(c3ccnc4sc(C(N)=O)c(N)c34)CC2)cc1 [15u, 3-amino-4-(4-(4-(dimethylcarbamoyl)phenyl)-1,4-diazepan-1-yl)thieno[2,3-b]pyridine-2-carboxamide] | 95 | 68 | 77 | 99 | 100 | 95 | 84 | 100 | 31 | 87 | 100 | 91 | 99 | 99 | 13 | 100 | 68 | 96 | 100 | 97 | % Ctrl [21]: 100 % Ctrl; % Ctrl [22]: 81 % Ctrl; % Ctrl [23]: 56 % Ctrl; % Ctrl [24]: 97 % Ctrl; % Ctrl [25]: 75 % Ctrl; % Ctrl [26]: 83 % Ctrl; % Ctrl [27]: 76 % Ctrl; % Ctrl [28]: 97 % Ctrl; % Ctrl [29]: 94 % Ctrl; % Ctrl [30]: 98 % Ctrl; % Ctrl [31]: 92 % Ctrl; % Ctrl [32]: 100 % Ctrl; % Ctrl [33]: 81 % Ctrl; % Ctrl [34]: 100 % Ctrl; % Ctrl [35]: 98 % Ctrl; % Ctrl [36]: 100 % Ctrl; % Ctrl [37]: 94 % Ctrl
2 | [2H]C([2H])([2H])N(C(=O)c1ccc(N2CCCN(c3ccnc4sc(C(N)=O)c(N)c34)CC2)cc1)C([2H])([2H])[2H] [15u_D6, 3-amino-4-(4-(4-(bis(methyl-d3)carbamoyl)phenyl)-1,4-diazepan-1-yl)thieno[2,3-b]pyridine-2-carboxamide] | 89 | 47 | 69 | 36 | 100 | 89 | 66 | 84 | 34 | 93 | 88 | 44 | 92 | 97 | 0 | 98 | 30 | 91 | 78 | 82 | % Ctrl [21]: 100 % Ctrl; % Ctrl [22]: 93 % Ctrl; % Ctrl [23]: 90 % Ctrl; % Ctrl [24]: 80 % Ctrl; % Ctrl [25]: 84 % Ctrl; % Ctrl [26]: 80 % Ctrl; % Ctrl [27]: 98 % Ctrl; % Ctrl [28]: 100 % Ctrl; % Ctrl [29]: 31 % Ctrl; % Ctrl [30]: 92 % Ctrl; % Ctrl [31]: 95 % Ctrl; % Ctrl [32]: 100 % Ctrl; % Ctrl [33]: 78 % Ctrl; % Ctrl [34]: 87 % Ctrl; % Ctrl [35]: 87 % Ctrl; % Ctrl [36]: 87 % Ctrl; % Ctrl [37]: 75 % Ctrl
